What was measured:
[1] = in vivo; cited from earlier work
CB2 = CB2 (Homo sapiens, UniProt P34972); conditions: cited from earlier work
[2] = Tolerability of CBD and THCV daily doses; assay type: in vivo
CB1 = CB1 (Homo sapiens, UniProt P21554); conditions: cited from earlier work
CB1, sequence (P21554 whole entry, species assumed): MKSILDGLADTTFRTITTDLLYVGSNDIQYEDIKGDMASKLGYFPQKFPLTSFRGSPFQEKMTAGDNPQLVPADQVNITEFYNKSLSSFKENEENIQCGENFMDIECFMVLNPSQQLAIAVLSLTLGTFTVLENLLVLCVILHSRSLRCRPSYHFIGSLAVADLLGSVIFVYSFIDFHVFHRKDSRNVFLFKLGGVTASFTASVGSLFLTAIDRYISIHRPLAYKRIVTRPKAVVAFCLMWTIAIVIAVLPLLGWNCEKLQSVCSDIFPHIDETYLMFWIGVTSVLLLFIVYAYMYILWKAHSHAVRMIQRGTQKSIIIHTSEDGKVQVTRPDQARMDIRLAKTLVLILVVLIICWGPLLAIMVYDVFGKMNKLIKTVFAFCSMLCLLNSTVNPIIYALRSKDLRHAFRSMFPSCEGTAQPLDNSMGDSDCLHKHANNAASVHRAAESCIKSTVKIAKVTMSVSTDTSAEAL

CB2, sequence (P34972 whole entry, species assumed): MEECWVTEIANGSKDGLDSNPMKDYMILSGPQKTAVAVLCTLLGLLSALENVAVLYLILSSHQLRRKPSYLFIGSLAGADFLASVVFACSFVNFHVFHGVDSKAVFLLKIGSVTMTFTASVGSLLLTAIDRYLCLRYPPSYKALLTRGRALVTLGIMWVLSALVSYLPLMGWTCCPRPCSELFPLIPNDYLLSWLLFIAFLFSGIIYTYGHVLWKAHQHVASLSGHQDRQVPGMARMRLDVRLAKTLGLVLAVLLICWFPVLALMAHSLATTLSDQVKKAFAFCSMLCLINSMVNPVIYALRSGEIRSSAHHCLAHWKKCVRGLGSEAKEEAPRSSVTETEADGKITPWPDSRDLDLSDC

For `CCCCCCC(C)(C)c1cc(O)c2c(c1)OC(C)(C)[C@@H]1CCC(=O)C[C@@H]21` (racemic) [Cesamet, (±)-trans-3-(1,1-dimethylheptyl)-6,6a,7,8,10,10a-hexahydro-lhydroxy-6-6-dimethyl-9H-dibenzo[b,d]pyran-9-one], the reducing spasticity [1] is given as “positive results”.

In the case of `CCCCCCC(C)(C)c1cc(O)c2c(c1)oc(=O)c1ccc(OC)cc12` [AM-1710], the “selectivity for CB2 over CB1” value (CB2) is listed as 54 ×.

With `C=C(C)[C@@H]1CCC(C)=C[C@H]1c1c(O)cc(CCCCC)cc1O` [CBD, 2-[(1R,6R)-6-isopropenyl-3-methylcyclohex-2-en-1-yl]-5-pentylbenzene-1,3-diol] the tolerability ([2]; 200 mg CBD per day) was “well tolerated”.

In the case of `CCCn1cc(C(=O)c2ccc(C)c3ccccc23)c2ccccc21` [JWH-120], the “selectivity for CB2” value (CB2) is given as 173 fold.

In the case of `CCCn1c(C)c(C(=O)c2ccc(C)c3ccccc23)c2ccccc21` [JWH-148], the “selectivity for CB2 over the CB1 subtype” value (CB2) is given as “more than 8 times”.

For `CCCCCCC(C)(C)c1cc(OC)c2c(c1)OC(C)(C)C1CCC(O)CC21` (stereo not drawn) [JWH-350, 11-nor-1-methoxy-3-(1′,1′-dimethylheptyl)-9α-hydroxyhexahydrocannabinol], the “selectivity for CB2” value (CB2) is given as 33 fold.

In the case of `CCCCCn1cc(C(=O)c2ccc(Cl)c3ccccc23)c2ccccc21` [JWH-398], the Ki (CB2) is listed as 2.8 nM and the Ki (CB1) is listed as 2.3 nM.

For `CCCCCn1cc(C(=O)c2cccc3cccc(Br)c23)c2ccccc21` [JWH-424], the Ki (CB2) is listed as 5.44 nM and the Ki (CB1) is listed as 20.9 nM.

For `CCCCCc1cc(O)c2c(c1)OC(C)(C)[C@@H]1CCC(C)=C[C@@H]21` [Marinol], the reducing spasticity [1] is listed as “positive results”.

For `CCCCC/C=C\C/C=C\C/C=C\C/C=C\CCCC(=O)N[C@H](C)CO` [Methanandamide], the Ki (CB1) is listed as 17.9 nM.

For `CCCc1cc(O)c2c(c1)OC(C)(C)[C@@H]1CCC(C)=C[C@@H]21` [THCV, tetrahydrocannbivarin], the tolerability ([2]; 10 mg THCV per day) was “well tolerated”.
